Data taken from article PMC8653689, “Phenanthrotriazine Derivatives Containing Arylidine Hydrazone Moieties as Novel Potential c-Met Inhibitors with Anticancer Effect” (Iranian Journal of Pharmaceutical Research : IJPR, 2021).
Read-outs that look alike come from different tables or passages of the source. Each block holds one molecule with its values, some of them ahead of it.

Assays:
[1] = tested on: MCF-7 (human breast adenocarcinoma) cells; test: MTT reduction assay, antiproliferative effect, MCF-7; type: cell-based
Source text: (§1) Fetal bovine serum (FBS), phosphate-buffered saline (PBS), RPMI-1640, and trypsin were obtained from Biosera (Ringmer, UK). Penicillin/streptomycin and MTT (3-(4,5-dimethylthiazol-2-yl)-2,5-diphenyltetrazolium bromide) were from Sigma-Aldrich (Saint Louis, MO, USA) and Invitrogen (San Diego, CA, USA), respectively. Dimethyl sulfoxide and doxorubicin were purchased from Merck (Darmstadt, Germany) and EBEWE Pharma (Unterach, Austria), respectively. The cells were acquired from Iranian Biological Resource Center, Tehran, Iran (HT-29 (human colorectal adenocarcinoma), MCF-7 (human breast adenocarcinoma) and Vero (African green monkey kidney) cells) or National Cell Bank of Iran, Pasteur Institute, Tehran, Iran (MOLT-4 (lymphoblastic leukemia) cells).
(§2) MTT reduction assay was employed to assess the viability of cancer cells after being treated with synthesized derivatives as previously described ([34]). The cells were plated in flat-bottom 96-well microplates, at densities of 3 × 10^4 cells/mL (100 μL in each well) and then incubated overnight at 37 °C. Three to four different concentrations of synthesized derivatives (in the range of 1 to 100 μM) were placed in triplicate wells and the plates were incubated for 72 h at 37 °C. […] At the end of the incubation time, 80 μL of the media in each well was replaced with the same amount of growth medium without phenol red containing 0.5 mg/mL of MTT. Cells were further incubated at 37 °C for 4 h and then 80 μL of the solution of each well was removed. The addition of DMSO (200μL) to each well solubilized the formazan crystals formed inside the viable cells after 1-hour incubation followed by 30-minute shaking. The optical absorbance of the final solution was determined at 570 nm using a Bio-Tek multimode plate reader (Synergy HTX). The cell viability was calculated compared to untreated control cells by comparison of absorbance measurements. CurveExpert software (version 1.34 for Windows) was used to determine the IC50 value for each compound. To confirm the results, every experiment was repeated 3 to 5 times.

[2] = tested on: MOLT-4 (lymphoblastic leukemia) cells; test: MTT reduction assay, antiproliferative effect, MOLT-4; type: cell-based, human; details: read-out: MOLT-4 IC50
Source text: as §1, §2

[3] = tested on: HT-29 (human colorectal adenocarcinoma) cells; test: MTT reduction assay, antiproliferative effect, HT-29; type: cell-based; details: for IC50: read-out: HT-29 IC50; for viability at 25 µM: cell line not named in the sentence (NA in HT-29, MCF-7, MOLT-4 in Table 1), read-out: Cell viability at the highest tested concentration
Source text: as §1, §2

[4] = tested on: Vero (African green monkey kidney) cells; test: MTT reduction assay, Vero normal cells; type: cell-based; details: read-out: Vero IC50
Source text: as §1, §2

MCF-7 cells [5] = test: Hoechst 33258 staining, detection of apoptosis; type: cell-based, human; details: MCF-7, 72 h treatment, especially at 25 µM
Description: Hoechst 33258 was used as a DNA stain to detect apoptosis in cells. MCF-7 cells were seeded in a 6-well plate at a density of 5 × 10^4 cells/mL (2 mL per well) and incubated for 24 h. The whole medium was removed and different concentrations of test compounds 9g, 9j, 9k, and 9l diluted in 2 mL medium were placed in the different wells and incubated for 72 h. Afterward, the medium was removed again, 1 mL of 4% cold freshly prepared paraformaldehyde (PFA) was added, and cells were incubated for 20 min at room temperature. The cells were then washed 2 times with 1 ml PBS and incubated with 1 mL Hoechst 33258 2.5 µg/mL for 30 min in the dark at room temperature ([36], [37]). In the end, the cells were washed with 1 mL PBS and imaged with a fluorescence microscope.
Figure 3 Detection of apoptosis in MCF-7 cells by Hoechst staining. Hoechst 33258 was used as a DNA stain to detect apoptosis in MCF-7 cells treated with synthesized compounds. The cells were seeded in a 6-well plates and treated with different concentrations of test compounds 9g, 9j, 9k and 9l for 72 h. After removing the whole medium, 4% cold freshly prepared paraformaldehyde (PFA) was added for 20 min at room temperature, the cells were then washed twice with PBS, and incubated with Hoechst 33258 2.5 µg/mL for 30 min at room temperature in the dark. Finally, the cells were washed with PBS again and the plates were imaged with a fluorescence microscope

MCF-7 cells [6] = test: Cell cycle analysis, propidium iodide/RNase flow cytometric assay; type: cell-based, human; details: 48 h
Description: Alterations of the cell cycle were determined by the propidium iodide (PI)-RNase flow cytometric method ([35]). MCF-7 cells were used to determine the percentage of cells in each phase of the cell cycle. In 6-well plates, 2 × 10^5 cells were seeded in each well and incubated at 37 °C for 48 h. Afterward, they were treated for 48 h with derivatives 9g, 9j, 9k and 9l at 10 and 25 μM. The cells were then collected after trypsinization, washed twice with PBS, and fixed by 5 mL ethanol 70% for at least 24 h at -20 °C. After fixation, MCF-7 cells were washed with PBS two times and stained with PI 20 µg/mL and RNase 200 µg/mL for 30 min in the dark at room temperature. A FACS Calibur ﬂow cytometer (BD Biosciences) was used for the assays and 20,000 events were analyzed. The number of cells distributed in sub-G1, G0/G1, S, and G2/M were determined by CellQuest software (BD, USA).
Figure 2 Representative cell cycle histograms of MCF-7 cells treated with synthesized derivatives. Analysis of the percentage of cells in different phases of cell cycle was performed using propidium iodide (PI)-RNase flow cytometric assay. MCF-7 cells were seeded in 6-well microplates and treated with synthesized derivatives for 48 h. The cells were then collected and fixed in 70% ethanol overnight at -20 °C. In the end, the cells were stained with DNA staining solution (PI 20 µg/mL and RNase 200 µg/mL) for 30 min and 20,000 events were analyzed by a FACS Calibur ﬂow cytometer (BD Biosciences). Representative histograms of cells treated with compounds 9g, 9j, 9k and 9l are shown

[7] = Homo sapiens, MCF7, 72 h, read-out: MCF-7 IC50, MTT, 72 h incubation
[8] = Chlorocebus sabaeus, Vero, 72 h

Compound: O=[N+]([O-])c1cccc(C=NNc2nnc3c4ccccc4c4ccccc4c3n2)c1 [Compound 9h, 3-(2-(3-nitrobenzylidene)hydrazinyl)phenanthro[9,10-e][1,2,4]triazine]
- IC50 [1, 7]: 10.4 ± 2.9 µM
- IC50 ([2]; Homo sapiens, MOLT-4, 72 h): 3.9 ± 0.6 µM
- melting point: 216 to 219 °C
- IC50 ([3]; Homo sapiens, HT-29, 72 h): 12.2 ± 4.1 µM
- IC50 [4, 8]: 19.4 ± 6.8 µM

Compound: N.N.[Cl][Pt][Cl] [Cisplatin, reference compound]
- IC50 ([1]; MTT, 72 h incubation, read-out: MCF-7 IC50): 8.1 ± 2.6 µM
- IC50 ([2]; MTT, 72 h incubation): 2.9 ± 0.2 µM
- IC50 ([3]; MTT, 72 h incubation): 24.6 ± 3.6 µM
- IC50 ([4]; MTT, 72 h incubation, normal cells): 7.8 ± 1 µM

- melting point: 329 to 333 °C
Compound: Oc1cccc(C=NNc2nnc3c4ccccc4c4ccccc4c3n2)c1O [Compound 9f, 3-((2-(phenanthro[9,10-e][1,2,4]triazin-3-yl)hydrazono)methyl)benzene-1,2-diol]
- viability at 25 µM ([3]; Homo sapiens, MTT): ≥ 50%

Compound: C(=NNc1nnc2c3ccccc3c3ccccc3c2n1)c1cccs1 [Compound 9l, 3-(2-(thiophene-2-ylmethylene)hydraz-inyl)phenanthro[9,10-e][1,2,4]triazine]
- Apoptosis induction by Hoechst 33258 staining (MCF-7 cells [5]): showed signs of apoptosis
- Percentage of cells in G0/G1 (MCF-7 cells [6]; MCF-7, 10 µM): 73.76 ± 0.6
- Percentage of cells in G2/M (MCF-7 cells [6]; MCF-7, 10 µM): 18.50 ± 1.7
- Percentage of cells in S (MCF-7 cells [6]; MCF-7, 10 µM): 6.28 ± 1.0
- Percentage of cells in Sub G1 (MCF-7 cells [6]; MCF-7, 10 µM): 1.32 ± 0.3
- Effect on cells in sub-G1 phase (MCF-7 cells [6]; MCF-7, 25 µM): increased the cells in the sub-G1 phase
- Percentage of cells in G0/G1 (MCF-7 cells [6]; MCF-7, 25 µM): 72.07 ± 0.9
- Percentage of cells in G2/M (MCF-7 cells [6]; MCF-7, 25 µM): 19.43 ± 0.8
- Percentage of cells in S (MCF-7 cells [6]; MCF-7, 25 µM): 6.75 ± 0.9
- Percentage of cells in Sub G1 (MCF-7 cells [6]; MCF-7, 25 µM): 1.56 ± 0.3
- Effect on number of cells in G0/G1 (MCF-7 cells [6]; MCF-7, 10 and 25 µM): significantly enhanced the number of cells in the G0/G1
- IC50 [1, 7]: 6.9 ± 0.9 µM
- IC50 ([2]; Homo sapiens, MOLT-4, 72 h): 6.8 ± 0.7 µM
- melting point: 228 to 231 °C
- IC50 ([3]; Homo sapiens, HT-29, 72 h): 12.9 ± 3.5 µM
- IC50 [4, 8]: 6.2 ± 3.1 µM

- melting point: 286 to 290 °C
Compound: C(=NNc1nnc2c3ccccc3c3ccccc3c2n1)c1ccccc1 [Compound 9a, 3-(2-benzylidenehydrazinyl)phenanthro [9,10-e][1,2,4]triazine]
- viability at 25 µM ([3]; Homo sapiens, MTT): ≥ 50%

- IC50 ([1]; Homo sapiens, MCF7, MTT, 72 h incubation, read-out: MCF-7 IC50): 0.066 ± 0.007 µM
- IC50 ([2]; Homo sapiens, MOLT-4, MTT, 72 h incubation): 0.017 ± 0.001 µM
- IC50 ([3]; Homo sapiens, HT-29, MTT, 72 h incubation): 0.409 ± 0.038 µM
Compound: COc1cccc2c1C(=O)c1c(O)c3c(c(O)c1C2=O)C[C@@](O)(C(=O)CO)C[C@@H]3O[C@H]1C[C@H](N)[C@H](O)[C@H](C)O1 [Doxorubicin, reference compound]
- IC50 ([4]; Chlorocebus sabaeus, Vero, MTT, 72 h incubation, normal cells): 0.926 ± 0.031 µM
